# Read-outs that look alike come from different tables or passages of the source.
# Experiments:
# [1] = tested on: Escherichia coli O 55; test: In vitro anti-bacterial activity test (MIC, two-fold agar dilution); format: cell-based; details: O55, Mueller-Hinton agar, 10⁷ CFU/mℓ, 37°C, 18 hours, read-out: MIC
# [2] = tested on: Enterobacter cloacae 1321E; test: as above; format: cell-based; details: Mueller-Hinton agar, 10⁷ CFU/mℓ, 37°C, 18 hours, read-out: MIC
# [3] = tested on: Streptococcus pyogenes 308A; test: as above; format: cell-based; details: Mueller-Hinton agar, 10⁷ CFU/mℓ, 37°C, 18 hours, read-out: MIC
# [4] = in vivo; details: female, ICR, mouse
# Method: Test compounds were administered to female ICR mice weighing 20 to 25g and on day 14, LD₅₀ was calculated from the number of survived mice by the probit analysis.
# [5] = tested on: Escherichia coli OTEM; test: In vitro anti-bacterial activity test (MIC, two-fold agar dilution); format: cell-based; details: Mueller-Hinton agar, 10⁷ CFU/mℓ, 37°C, 18 hours, read-out: MIC
# [6] = tested on: Escherichia coli DC 0; test: as above; format: cell-based; details: DC0, Mueller-Hinton agar, 10⁷ CFU/mℓ, 37°C, 18 hours, read-out: MIC
# [7] = tested on: Pseudomonas aeruginosa 9027; test: as above; format: cell-based; details: Pseudomonas aeruginosa 9027; Mueller-Hinton agar, 10⁷ CFU/mℓ, 37°C, 18 hours; read-out: MIC
# [8] = tested on: Pseudomonas aeruginosa 1771; test: as above; format: cell-based; details: Pseudomonas aeruginosa 1771; Mueller-Hinton agar, 10⁷ CFU/mℓ, 37°C, 18 hours; read-out: MIC
# [9] = tested on: Klebsiella aerogenes 1522E; test: as above; format: cell-based; details: Mueller-Hinton agar, 10⁷ CFU/mℓ, 37°C, 18 hours, read-out: MIC
# [10] = tested on: Streptococcus faecium MD 8b; test: as above; format: cell-based; details: Enterococcus faecium, MD8B; Streptococcus faecium MD 8b; Mueller-Hinton agar, 10⁷ CFU/mℓ, 37°C, 18 hours; read-out: MIC
# [11] = tested on: Streptococcus pyogenes 77A; test: as above; format: cell-based; details: Streptococcus pyogenes 77A; Mueller-Hinton agar, 10⁷ CFU/mℓ, 37°C, 18 hours; read-out: MIC
# [12] = tested on: Escherichia coli DC 2; test: as above; format: cell-based; details: DC2, Mueller-Hinton agar, 10⁷ CFU/mℓ, 37°C, 18 hours, read-out: MIC
# [13] = tested on: Klebsiella aerogenes 1082E; test: as above; format: cell-based; details: Mueller-Hinton agar, 10⁷ CFU/mℓ, 37°C, 18 hours, read-out: MIC
# [14] = tested on: P. mirabilis; test: Preventive effect on the systemic infection; format: in vivo; details: Proteus mirabilis, in Mus musculus, P. mirabilis intraperitoneal infection, NMRI mice, survival on day 7, probit analysis, read-out: ED₅₀
# Method: (§1) 10 fold of the pathogen which leads to 100% lethality were injected intraperitoneally to male and female NMRI mice weighing 18 to 20g. Immediately and after 4 hours, the dose of test compounds which was determined by two-fold serial dilution method was administered orally or subcutaneously; and on day 7, the effectiveness was evaluated in terms of ED₅₀ calculated from the number of survived mice by the probit analysis.
# [15] = tested on: S. aureus 17740; test: Preventive effect on the systemic infection; format: in vivo; details: Staphylococcus aureus, 17740, in Mus musculus, S. aureus 17740 intraperitoneal infection, NMRI mice, survival on day 7, probit analysis, read-out: ED₅₀
# Method: as §1
# [16] = tested on: Escherichia coli 1507E; test: In vitro anti-bacterial activity test (MIC, two-fold agar dilution); format: cell-based; details: Mueller-Hinton agar, 10⁷ CFU/mℓ, 37°C, 18 hours, read-out: MIC
# [17] = tested on: Staphylococcus aureus SG 511; test: as above; format: cell-based; details: SG511; Staphylococcus aureus SG 511; Mueller-Hinton agar, 10⁷ CFU/mℓ, 37°C, 18 hours; read-out: MIC
# [18] = tested on: Pseudomonas aeruginosa 1592E; test: as above; format: cell-based; details: Mueller-Hinton agar, 10⁷ CFU/mℓ, 37°C, 18 hours, read-out: MIC
# [19] = tested on: Staphylococcus aureus 503; test: as above; format: cell-based; details: Staphylococcus aureus 503; Mueller-Hinton agar, 10⁷ CFU/mℓ, 37°C, 18 hours; read-out: MIC
# [20] = tested on: Enterobacter cloacae P99; test: as above; format: cell-based; details: Mueller-Hinton agar, 10⁷ CFU/mℓ, 37°C, 18 hours, read-out: MIC
# [21] = tested on: Staphylococcus aureus 285; test: as above; format: cell-based; details: Staphylococcus aureus 285; Mueller-Hinton agar, 10⁷ CFU/mℓ, 37°C, 18 hours; read-out: MIC
# [22] = tested on: Salmonella typhimurium; test: as above; format: cell-based; details: Salmonella enterica, Mueller-Hinton agar, 10⁷ CFU/mℓ, 37°C, 18 hours, read-out: MIC
# [23] = tested on: Pseudomonas aeruginosa 1771M; test: as above; format: cell-based; details: 18 h
# [24] = Oral Administration immediately and after 4 hours
# [25] = Subcutaneous Injection immediately and after 4 hours
SMILES,MIC [1],MIC [2],MIC [3],LD50 at 14 day ([4]; ip),LD50 at 14 day ([4]; po),MIC [5],MIC [6],MIC [7],MIC [8],MIC [9],MIC [10],MIC [11],MIC [12],MIC [13],MIC [16],MIC [17],MIC [18],MIC [19],MIC [20],MIC [21],other results
"NC1CCC2=C1CN(c1c(F)cc3c(=O)c(C(=O)O)cn(C4CC4)c3c1F)C2 (centres unmarked) [Example 1, 7-[6-amino-3-azabicyclo[3,3,0]oct-1(5)ene-3-yl]-1-cyclopropyl-6,8-difluoro-1,4-dihydro-4-oxoquinoline-3-carboxylic acid]",0.025 µg/mL,0.025 µg/mL,0.391 µg/mL,720 mg/kg,4000 mg/kg,0.049 µg/mL,0.391 µg/mL,1.56 µg/mL,1.56 µg/mL,0.098 µg/mL,0.098 µg/mL,0.098 µg/mL,0.098 µg/mL,0.007 µg/mL,0.049 µg/mL,0.098 µg/mL,1.56 µg/mL,0.049 µg/mL,0.098 µg/mL,0.098 µg/mL,"ED50 [14, 24]: 5.5 mg/kg; ED50 [14, 25]: 1.55 mg/kg; ED50 [15, 24]: 105 mg/kg; ED50 [15, 25]: 25 mg/kg; MIC [22]: 0.049 µg/mL; MIC [23]: 0.391 µg/mL"
"CNC1CCC2=C1CN(c1c(F)cc3c(=O)c(C(=O)O)cn(C4CC4)c3c1F)C2 (centres unmarked) [Example 2, 1-cyclopropyl-6,8-difluoro-7-[6-methylamino-3-azabicyclo[3,3,0]oct-1(5)ene-3-yl]-1,4-dihydro-4-oxoquinoline-3-carboxylic acid]",0.013 µg/mL,0.013 µg/mL,0.195 µg/mL,810 mg/kg,4100 mg/kg,0.098 µg/mL,0.781 µg/mL,3.12 µg/mL,1.56 µg/mL,0.049 µg/mL,0.098 µg/mL,0.098 µg/mL,0.098 µg/mL,0.013 µg/mL,0.098 µg/mL,0.049 µg/mL,1.56 µg/mL,0.049 µg/mL,0.049 µg/mL,0.098 µg/mL,"ED50 [15, 24]: 112 mg/kg; ED50 [15, 25]: 27 mg/kg; MIC [22]: 0.391 µg/mL; MIC [23]: 0.781 µg/mL"
"NC1CCC2=C1CN(c1c(F)cc3c(=O)c(C(=O)O)cn(C4CC4)c3c1Cl)C2 (centres unmarked) [Example 3, 7-[6-amino-3-azabicyclo[3,3,0]oct-1(5)ene-3-yl]-1-cyclopropyl-8-chloro-6-fluoro-1,4-dihydro-4-oxoquinoline-3-carboxylic acid]",0.049 µg/mL,0.098 µg/mL,0.195 µg/mL,731 mg/kg,4100 mg/kg,0.098 µg/mL,0.781 µg/mL,1.56 µg/mL,1.56 µg/mL,0.195 µg/mL,0.098 µg/mL,0.049 µg/mL,0.049 µg/mL,0.013 µg/mL,0.098 µg/mL,0.025 µg/mL,1.56 µg/mL,0.049 µg/mL,0.098 µg/mL,0.049 µg/mL,"ED50 [14, 24]: 5.9 mg/kg; ED50 [14, 25]: 1.43 mg/kg; MIC [22]: 0.049 µg/mL; MIC [23]: 0.391 µg/mL"

# — EP0549857A1, “Antibacterial quinolone carboxylic acid derivatives” (KOREA RESEARCH INSTITUTE OF CHEMICAL TECHNOLOGY, priority 1991, dated 1993)
